Our source for the GI50 and TGI values is PubChem BioAssay (NCI).

Some test systems named below: MCF7 breast; OVCAR-4 ovarian; OVCAR-3 ovarian; SR leukemia; UO-31 renal; 786-0 renal; TK-10 renal; HCT-15 colon; A549 NSCLC; MDA-MB-435.
Common to all, as to experiment: inhibition of tumour cell growth, NCI panel, 48 h

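Growth conditions: 96-well plates. Treatment: test compound, 48 hours, 5 concentrations. Analysis: linear interpolation between bracketing concentrations; unreached endpoints set to highest concentration. Here, GI50 denotes the concentration required for 50% inhibition of growth. TGI denotes the concentration required for complete inhibition of growth.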

For `CC1=CC2(C)/C=C(C)/C=C\CC(O)/C=C3/C=CC(=C4C(=O)OC2(CC1C)C4=O)OC3` (stereo not given), the GI50 with MCF7 breast is 2.11 µM; in the experiment on OVCAR-4 ovarian it was 1.89 µM; with OVCAR-3 ovarian it was 1.18 µM; in the experiment with SR leukemia it was 1.59 µM; in the experiment on UO-31 renal, 1.46 µM; with 786-0 renal, 2.25 µM. For the same compound, the GI50 is 1.54 µM with TK-10 renal, 1.47 µM with HCT-15 colon, 3.66 µM with A549 NSCLC and 2 µM in the experiment on MDA-MB-435. Also, the TGI in the experiment on MCF7 breast is 20.7 µM; in the experiment on OVCAR-4 ovarian it was 4.91 µM; in the experiment with OVCAR-3 ovarian, 2.5 µM; in the experiment with SR leukemia, above 100 µM; in the experiment on UO-31 renal it was 3.06 µM; in the experiment with 786-0 renal, 4.94 µM. The TGI stood at 3.46 µM with TK-10 renal, 3.69 µM with HCT-15 colon, 16.8 µM in the experiment with A549 NSCLC and 5.12 µM in the experiment with MDA-MB-435.
For `COc1cc2[nH]c3c(c2cc1OC)CCN[C@@]31CC[C@@]2(CC3c4c(cc(OC)c(O)c42)CCN3C)C[C@@H]1OC` (stereo not given in full), the TGI was above 100 µM in the experiment on MCF7 breast; above 100 µM in the experiment with OVCAR-4 ovarian; above 94.8 µM with OVCAR-3 ovarian; 36.6 µM with SR leukemia; 57.8 µM in the experiment on UO-31 renal; above 100 µM with 786-0 renal. The TGI was 84.5 µM with TK-10 renal, above 100 µM with HCT-15 colon, above 100 µM with A549 NSCLC and 41.4 µM in the experiment with MDA-MB-435.
